System: plasma metabolites
Assay: Metabolomic analysis of plasma
Assay type: in vivo, mice
Experimental: Metabolomic analyses were conducted at Metabolon (Durham, NC, USA) as described previously. For statistical analyses and data display, any missing values were assumed to be below the limits of detection and imputed with the compound minimum (minimum value imputation). An estimate of the FDR (Q value) was calculated to take into account the multiple comparisons that normally occur in metabolomics-based studies, with Q < 0.05 used as an indication of high confidence in a result. The MetaboAnalyst tool was used to generate heat maps.

[1] = AD mice fed CAD-31 200 ppm 3 months vs AD
[2] = WT control mice fed CAD-31 200 ppm 3 months vs control

Cc1ccc(N(/N=C/c2cccc(OC(F)(F)F)c2)C(=O)C(F)(F)F)c(C)c1 [CAD-31]
1,2-dipalmitoyl-GPC (16:0/16:0) Fold Change AD+31/AD [1]: 1.12
1-arachidonoyl-GPC (20:4n6)* Fold Change AD+31/AD [1]: 1.17
1-myristoylglycerol (14:0) Fold Change AD+31/AD [1]: 0.94
1-oleoylglycerol (18:1) Fold Change AD+31/AD [1]: 1.17
1-palmitoyl-2-arachidonoyl-GPC (16:0/20:4n6) Fold Change AD+31/AD [1]: 1.19
1-palmitoyl-2-stearoyl-GPC (16:0/18:0) Fold Change AD+31/AD [1]: 1.23
1-stearoyl-GPE (18:0) Fold Change AD+31/AD [1]: 1.22
2-palmitoylglycerol (16:0) Fold Change AD+31/AD [1]: 1.22
3-acetylphenol sulfate Fold Change AD+31/AD [1]: 0.59
3-ethylphenylsulfate Fold Change AD+31/AD [1]: 2.39
3-hydroxy-3-methylglutarate Fold Change AD+31/AD [1]: 1.53
3-hydroxybutyrate (BHBA) Fold Change AD+31/AD [1]: 1.21
3-hydroxypyridine sulfate Fold Change AD+31/AD [1]: 1.07
3-indoxyl sulfate Fold Change AD+31/AD [1]: 1.15
4-hydroxyhippurate Fold Change AD+31/AD [1]: 0.73
4-hydroxyphenylpyruvate Fold Change AD+31/AD [1]: 1.05
5-hydroxyindoleacetate Fold Change AD+31/AD [1]: 1.01
5-oxoproline Fold Change AD+31/AD [1]: 1.02
7-ketodeoxycholate Fold Change AD+31/AD [1]: 0.18
9,10-DiHOME Fold Change AD+31/AD [1]: 0.99
10-heptadecenoate (17:1n7) Fold Change AD+31/AD [1]: 0.84
10-nonadecenoate (19:1n9) Fold Change AD+31/AD [1]: 0.87
10-undecenoate (11:1n1) Fold Change AD+31/AD [1]: 0.41
15-methylpalmitate Fold Change AD+31/AD [1]: 0.68
17-methylstearate Fold Change AD+31/AD [1]: 0.84
N2-acetyllysine Fold Change AD+31/AD [1]: 1.12
N-acetyl-3-methylhistidine* Fold Change AD+31/AD [1]: 0.86
N-acetylmethionine Fold Change AD+31/AD [1]: 1.14
N-acetylphenylalanine Fold Change AD+31/AD [1]: 1.1
N-acetylserine Fold Change AD+31/AD [1]: 1.11
N-carbamoylaspartate Fold Change AD+31/AD [1]: 1.97
N-delta-acetylornithine Fold Change AD+31/AD [1]: 1.22
N-palmitoyl-sphinganine (d18:0/16:0) Fold Change AD+31/AD [1]: 1.49
N-stearoyl-sphingosine (d18:1/18:0)* Fold Change AD+31/AD [1]: 1.5
acetylcarnitine Fold Change AD+31/AD [1]: 0.97
alpha-tocopherol Fold Change AD+31/AD [1]: 1.29
arabonate/xylonate Fold Change AD+31/AD [1]: 1.47
asparagine Fold Change AD+31/AD [1]: 0.97
beta-muricholate Fold Change AD+31/AD [1]: 0.41
caffeic acid sulfate Fold Change AD+31/AD [1]: 1.19
carnosine Fold Change AD+31/AD [1]: 0.68
chenodeoxycholate Fold Change AD+31/AD [1]: 0.26
choline phosphate Fold Change AD+31/AD [1]: 1.11
creatine Fold Change AD+31/AD [1]: 1.02
dihydroorotate Fold Change AD+31/AD [1]: 1.19
dopamine sulfate (2) Fold Change AD+31/AD [1]: 2.01
equol glucuronide Fold Change AD+31/AD [1]: 0.22
ergothioneine Fold Change AD+31/AD [1]: 0.44
erythritol Fold Change AD+31/AD [1]: 1.1
erythronate* Fold Change AD+31/AD [1]: 1.14
gamma-glutamylglutamate Fold Change AD+31/AD [1]: 0.97
gamma-glutamylglutamine Fold Change AD+31/AD [1]: 0.99
gamma-glutamylleucine Fold Change AD+31/AD [1]: 1.02
gamma-glutamylmethionine Fold Change AD+31/AD [1]: 1.04
gamma-glutamylphenylalanine Fold Change AD+31/AD [1]: 0.97
gamma-glutamylthreonine Fold Change AD+31/AD [1]: 1.03
gamma-glutamyltryptophan Fold Change AD+31/AD [1]: 0.78
gamma-glutamyltyrosine Fold Change AD+31/AD [1]: 0.92
glucuronate Fold Change AD+31/AD [1]: 1.18
glutamate Fold Change AD+31/AD [1]: 0.99
glutathione, oxidized (GSSG) Fold Change AD+31/AD [1]: 1.46
glycosyl-N-palmitoyl-sphingosine (d18:1/16:0) Fold Change AD+31/AD [1]: 1.29
glycosyl-N-stearoyl-sphingosine (d18:1/18:0) Fold Change AD+31/AD [1]: 1.42
gulonate* Fold Change AD+31/AD [1]: 1.59
hexanoylglycine Fold Change AD+31/AD [1]: 1.03
indoleacetylglycine Fold Change AD+31/AD [1]: 0.89
isobutyrylcarnitine Fold Change AD+31/AD [1]: 2.26
linoleate (18:2n6) Fold Change AD+31/AD [1]: 0.98
margarate (17:0) Fold Change AD+31/AD [1]: 0.9
methionine sulfoxide Fold Change AD+31/AD [1]: 1.26
methylmalonate (MMA) Fold Change AD+31/AD [1]: 1.15
o-cresol sulfate Fold Change AD+31/AD [1]: 1.63
oleoylcarnitine Fold Change AD+31/AD [1]: 0.94
palmitoleoylcarnitine* Fold Change AD+31/AD [1]: 0.97
palmitoyl dihydrosphingomyelin (d18:0/16:0)* Fold Change AD+31/AD [1]: 1.32
palmitoyl sphingomyelin (d18:1/16:0) Fold Change AD+31/AD [1]: 1.22
palmitoyl-palmitoyl-glycerol (16:0/16:0) [1]* Fold Change AD+31/AD [1]: 1.17
pentadecanoate (15:0) Fold Change AD+31/AD [1]: 0.95
phenol sulfate Fold Change AD+31/AD [1]: 1.03
phenylpropionylglycine Fold Change AD+31/AD [1]: 2.89
phosphoethanolamine Fold Change AD+31/AD [1]: 1.05
pyridoxal Fold Change AD+31/AD [1]: 1.22
pyridoxate Fold Change AD+31/AD [1]: 1.49
pyruvate Fold Change AD+31/AD [1]: 1.04
ribonate Fold Change AD+31/AD [1]: 1.53
sphinganine-1-phosphate Fold Change AD+31/AD [1]: 1.45
sphingosine Fold Change AD+31/AD [1]: 1.35
stearidonate (18:4n3) Fold Change AD+31/AD [1]: 0.87
suberate (octanedioate) Fold Change AD+31/AD [1]: 1.33
sucrose Fold Change AD+31/AD [1]: 2.83
tartronate (hydroxymalonate) Fold Change AD+31/AD [1]: 0.99
taurine Fold Change AD+31/AD [1]: 0.91
threonine Fold Change AD+31/AD [1]: 1.08
tryptophan Fold Change AD+31/AD [1]: 0.91
ursodeoxycholate Fold Change AD+31/AD [1]: 0.23
1,2-dipalmitoyl-GPC (16:0/16:0) Fold Change C+31/C [2]: 1.26
1-arachidonoyl-GPC (20:4n6)* Fold Change C+31/C [2]: 1.04
1-myristoylglycerol (14:0) Fold Change C+31/C [2]: 0.59
1-oleoylglycerol (18:1) Fold Change C+31/C [2]: 0.64
1-palmitoyl-2-arachidonoyl-GPC (16:0/20:4n6) Fold Change C+31/C [2]: 1.11
1-palmitoyl-2-stearoyl-GPC (16:0/18:0) Fold Change C+31/C [2]: 1.1
1-stearoyl-GPE (18:0) Fold Change C+31/C [2]: 1.01
2-palmitoylglycerol (16:0) Fold Change C+31/C [2]: 0.79
3-acetylphenol sulfate Fold Change C+31/C [2]: 0.21
3-ethylphenylsulfate Fold Change C+31/C [2]: 2.27
3-hydroxy-3-methylglutarate Fold Change C+31/C [2]: 0.99
3-hydroxybutyrate (BHBA) Fold Change C+31/C [2]: 1.83
3-hydroxypyridine sulfate Fold Change C+31/C [2]: 0.72
3-indoxyl sulfate Fold Change C+31/C [2]: 0.63
4-hydroxyhippurate Fold Change C+31/C [2]: 0.42
4-hydroxyphenylpyruvate Fold Change C+31/C [2]: 1.65
5-hydroxyindoleacetate Fold Change C+31/C [2]: 0.83
5-oxoproline Fold Change C+31/C [2]: 1.27
7-ketodeoxycholate Fold Change C+31/C [2]: 1.33
9,10-DiHOME Fold Change C+31/C [2]: 0.65
10-heptadecenoate (17:1n7) Fold Change C+31/C [2]: 0.51
10-nonadecenoate (19:1n9) Fold Change C+31/C [2]: 0.6
10-undecenoate (11:1n1) Fold Change C+31/C [2]: 0.75
15-methylpalmitate Fold Change C+31/C [2]: 0.52
17-methylstearate Fold Change C+31/C [2]: 0.62
N2-acetyllysine Fold Change C+31/C [2]: 0.71
N-acetyl-3-methylhistidine* Fold Change C+31/C [2]: 0.84
N-acetylmethionine Fold Change C+31/C [2]: 1.6
N-acetylphenylalanine Fold Change C+31/C [2]: 1.41
N-acetylserine Fold Change C+31/C [2]: 1.09
N-carbamoylaspartate Fold Change C+31/C [2]: 0.54
N-delta-acetylornithine Fold Change C+31/C [2]: 1.42
N-palmitoyl-sphinganine (d18:0/16:0) Fold Change C+31/C [2]: 1.08
N-stearoyl-sphingosine (d18:1/18:0)* Fold Change C+31/C [2]: 1.12
acetylcarnitine Fold Change C+31/C [2]: 1.65
alpha-tocopherol Fold Change C+31/C [2]: 1.05
arabonate/xylonate Fold Change C+31/C [2]: 0.83
asparagine Fold Change C+31/C [2]: 1.48
beta-muricholate Fold Change C+31/C [2]: 1.78
caffeic acid sulfate Fold Change C+31/C [2]: 2.12
carnosine Fold Change C+31/C [2]: 0.62
chenodeoxycholate Fold Change C+31/C [2]: 0.67
choline phosphate Fold Change C+31/C [2]: 1.53
creatine Fold Change C+31/C [2]: 1.23
dihydroorotate Fold Change C+31/C [2]: 2.98
dopamine sulfate (2) Fold Change C+31/C [2]: 0.94
equol glucuronide Fold Change C+31/C [2]: 0.18
ergothioneine Fold Change C+31/C [2]: 0.68
erythritol Fold Change C+31/C [2]: 1.06
erythronate* Fold Change C+31/C [2]: 1.02
gamma-glutamylglutamate Fold Change C+31/C [2]: 2.69
gamma-glutamylglutamine Fold Change C+31/C [2]: 1.94
gamma-glutamylleucine Fold Change C+31/C [2]: 1.86
gamma-glutamylmethionine Fold Change C+31/C [2]: 2.24
gamma-glutamylphenylalanine Fold Change C+31/C [2]: 1.84
gamma-glutamylthreonine Fold Change C+31/C [2]: 2.07
gamma-glutamyltryptophan Fold Change C+31/C [2]: 1.81
gamma-glutamyltyrosine Fold Change C+31/C [2]: 2.33
glucuronate Fold Change C+31/C [2]: 1.04
glutamate Fold Change C+31/C [2]: 1.71
glutathione, oxidized (GSSG) Fold Change C+31/C [2]: 2.09
glycosyl-N-palmitoyl-sphingosine (d18:1/16:0) Fold Change C+31/C [2]: 1.25
glycosyl-N-stearoyl-sphingosine (d18:1/18:0) Fold Change C+31/C [2]: 0.76
gulonate* Fold Change C+31/C [2]: 1.01
hexanoylglycine Fold Change C+31/C [2]: 2.77
indoleacetylglycine Fold Change C+31/C [2]: 0.57
isobutyrylcarnitine Fold Change C+31/C [2]: 5.46
linoleate (18:2n6) Fold Change C+31/C [2]: 0.67
margarate (17:0) Fold Change C+31/C [2]: 0.6
methionine sulfoxide Fold Change C+31/C [2]: 1.52
methylmalonate (MMA) Fold Change C+31/C [2]: 0.87
o-cresol sulfate Fold Change C+31/C [2]: 0.93
oleoylcarnitine Fold Change C+31/C [2]: 1.42
palmitoleoylcarnitine* Fold Change C+31/C [2]: 1.81
palmitoyl dihydrosphingomyelin (d18:0/16:0)* Fold Change C+31/C [2]: 1.09
palmitoyl sphingomyelin (d18:1/16:0) Fold Change C+31/C [2]: 1.05
palmitoyl-palmitoyl-glycerol (16:0/16:0) [1]* Fold Change C+31/C [2]: 0.51
pentadecanoate (15:0) Fold Change C+31/C [2]: 0.71
phenol sulfate Fold Change C+31/C [2]: 0.59
phenylpropionylglycine Fold Change C+31/C [2]: 3.88
phosphoethanolamine Fold Change C+31/C [2]: 1.64
pyridoxal Fold Change C+31/C [2]: 1.54
pyridoxate Fold Change C+31/C [2]: 1.33
pyruvate Fold Change C+31/C [2]: 1.2
ribonate Fold Change C+31/C [2]: 1.07
sphinganine-1-phosphate Fold Change C+31/C [2]: 2.52
sphingosine Fold Change C+31/C [2]: 1.14
stearidonate (18:4n3) Fold Change C+31/C [2]: 0.65
suberate (octanedioate) Fold Change C+31/C [2]: 1.17
sucrose Fold Change C+31/C [2]: 2.7
tartronate (hydroxymalonate) Fold Change C+31/C [2]: 1.47
taurine Fold Change C+31/C [2]: 1.26
threonine Fold Change C+31/C [2]: 1.42
tryptophan Fold Change C+31/C [2]: 1.12
ursodeoxycholate Fold Change C+31/C [2]: 0.49
